# Experiments:
# [1] = tested on: Escherichia coli; assay: Antimicrobial testing by agar dilution, E. Coli; assay type: cell-based; settings: after 10, 20, 40 and 60 min at all dilutions 1:100, 1:200, 1:400, 1:800
# Description: (§1) The antimicrobial properties of the 7-(4-fluorobenzylidene)-4-(4-fluorophenyl)-2-methoxy-6,7-dihydro-5H-cyclopenta[b]pyridine-3-carbonitrile was studied by the method of agar dilution. Test solutions of each compound was prepared in concentration of 1% using dimethylformamide as a solvent then they are diluted in physiological solution to obtain the final experimental dilutions 1:100, 1:200, 1:400, 1:800. The effect of these substances are compared with furacillin in a controllable study. The testing microbes used were gram positive bacteria Staphylococcus aureus, gram negative bacteria Pseudomonas aeruginosa, Escherichia coli and Candida albicans fungi were taken. The experiments used for this survey were meat-pentonlu agar (EPA) for cultivation of bacteria and Saburo environment for fungi. Each experiment used 1 mL of test solution on each plate 500 min. Add 2 drops of emulsified with microbes feel. All experimental samples were taken from the agar after 10, 20, 40, 60 minutes in the environment on the basis of Patrk planted. Bacteria were cultivated at a temperature of 37° C. for 1 day and the mushroom was kept in a thermostat for […] at a temperature of 28° C. Then the results were checked.
# [2] = tested on: Staphylococcus aureus; assay: Antimicrobial testing by agar dilution, St. Aereus; assay type: cell-based; settings: after 10, 20, 40 and 60 min at all dilutions 1:100, 1:200, 1:400, 1:800
# Description: as §1
# [3] = tested on: Candida albicans; assay: Antimicrobial testing by agar dilution, Candida albicans; assay type: cell-based; settings: after 10, 20, 40 and 60 min at all dilutions 1:100, 1:200, 1:400, 1:800
# Description: as §1
# [4] = tested on: Pseudomonas aeruginosa; assay: Antimicrobial testing by agar dilution, Ps. aeruginosa; assay type: cell-based; settings: after 10, 20, 40 and 60 min at all dilutions 1:100, 1:200, 1:400, 1:800
# Description: as §1
structure (smiles),measurement,setting,value
"COc1nc2c(c(-c3ccc(F)cc3)c1C#N)CC/C2=C\c1ccc(F)cc1 [7-(4-fluorobenzylidene)-4-(4-fluorophenyl)-2-methoxy-6,7-dihydro-5H-cyclopenta[b]pyridine-3-carbonitrile]",inhibition activity,[1],most higher inhibition activity
same,inhibition activity,[2],most higher inhibition activity
same,inhibition activity,[3],most higher inhibition activity
same,inhibition activity,[4],most higher inhibition activity
same,melting point,,136 to 138 °C

# From patent US11970455B1, “7-(4-fluorobenzylidene)-4-(4-fluorophenyl)-2-methoxy-6,7-dihydro-5H-cyclopenta[b]pyridine-3-carbonitrile as an antimicrobial compound” (KING FAISAL UNIVERSITY, priority 2023, dated 2024)
